Measured values reported in US4562292A, “Trifluoromethylketone sulfides and reversible enzyme inhibition therewith” (priority 1983, dated 1985).

Biological target: T1, human brain neurotoxic esterase (Homo sapiens, UniProt Q8IY17)
T1 construct: from tissue; host or cells: human brain
T1 sequence (Q8IY17 1-1375): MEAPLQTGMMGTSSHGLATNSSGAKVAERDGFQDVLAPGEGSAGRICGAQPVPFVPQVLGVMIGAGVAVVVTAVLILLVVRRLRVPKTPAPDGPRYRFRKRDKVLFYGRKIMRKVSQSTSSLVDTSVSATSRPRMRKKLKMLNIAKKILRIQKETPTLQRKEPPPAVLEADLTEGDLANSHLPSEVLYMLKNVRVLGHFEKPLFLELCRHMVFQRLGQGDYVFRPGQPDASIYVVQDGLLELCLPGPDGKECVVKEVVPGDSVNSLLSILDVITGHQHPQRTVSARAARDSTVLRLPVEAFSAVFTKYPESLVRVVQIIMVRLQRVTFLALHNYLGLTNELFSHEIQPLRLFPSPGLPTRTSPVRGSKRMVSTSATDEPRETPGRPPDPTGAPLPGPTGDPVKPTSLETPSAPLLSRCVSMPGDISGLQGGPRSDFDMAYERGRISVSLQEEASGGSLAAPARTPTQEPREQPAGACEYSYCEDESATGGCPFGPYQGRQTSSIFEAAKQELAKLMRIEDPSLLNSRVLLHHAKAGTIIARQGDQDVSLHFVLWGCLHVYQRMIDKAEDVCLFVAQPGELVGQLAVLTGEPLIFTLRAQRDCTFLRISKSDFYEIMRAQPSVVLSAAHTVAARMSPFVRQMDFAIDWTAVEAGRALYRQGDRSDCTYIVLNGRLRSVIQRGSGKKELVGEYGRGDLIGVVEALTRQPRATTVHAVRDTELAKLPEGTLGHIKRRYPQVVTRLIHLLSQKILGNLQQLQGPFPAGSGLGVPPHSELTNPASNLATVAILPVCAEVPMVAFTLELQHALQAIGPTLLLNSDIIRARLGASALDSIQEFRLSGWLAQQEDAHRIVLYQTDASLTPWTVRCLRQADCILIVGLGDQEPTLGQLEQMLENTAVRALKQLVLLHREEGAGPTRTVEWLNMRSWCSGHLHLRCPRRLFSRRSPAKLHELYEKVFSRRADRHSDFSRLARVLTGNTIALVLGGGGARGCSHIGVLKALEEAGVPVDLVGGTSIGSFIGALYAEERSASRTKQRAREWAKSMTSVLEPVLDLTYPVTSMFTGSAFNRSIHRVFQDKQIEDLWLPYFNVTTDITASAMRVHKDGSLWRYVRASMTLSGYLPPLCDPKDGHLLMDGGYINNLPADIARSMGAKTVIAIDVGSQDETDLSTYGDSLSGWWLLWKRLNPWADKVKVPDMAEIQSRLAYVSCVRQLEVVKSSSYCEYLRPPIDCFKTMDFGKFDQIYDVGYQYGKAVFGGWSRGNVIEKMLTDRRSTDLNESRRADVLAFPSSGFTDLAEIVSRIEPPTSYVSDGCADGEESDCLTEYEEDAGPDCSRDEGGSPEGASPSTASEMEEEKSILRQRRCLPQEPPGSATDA
Experiment: blocking of mepafox inhibition of neurotoxic esterase
Format: biochemical
Conditions: relative to the other compounds
From the text: The data in Table III were generated by determining what concentration of the various novel compounds were needed to block the inhibition of human brain neurotoxic esterase by a high concentration of mepafox.

With `O=C(CSc1ccc(Oc2ccc(SCC(=O)C(F)(F)F)cc2)cc1)C(F)(F)F` [Compound 35] the “potency in blocking neurotoxic esterase” value was “most potent to date”.
